From US20240058347A1, “DOSAGES FOR HDAC TREATMENT WITH REDUCED SIDE EFFECTS” (VIRACTA THERAPEUTICS, INC., priority 2019, published 2024)
Like-named read-outs stand apart in the source and are kept apart here.

Columns and labels:
[1] = target: T1, HDAC11 (Homo sapiens, UniProt Q96DB2); test: in vitro HDAC inhibition assay (fluorescence), HDAC11; format: biochemical; details: HDAC11
T1 sequence (Q96DB2 1-347): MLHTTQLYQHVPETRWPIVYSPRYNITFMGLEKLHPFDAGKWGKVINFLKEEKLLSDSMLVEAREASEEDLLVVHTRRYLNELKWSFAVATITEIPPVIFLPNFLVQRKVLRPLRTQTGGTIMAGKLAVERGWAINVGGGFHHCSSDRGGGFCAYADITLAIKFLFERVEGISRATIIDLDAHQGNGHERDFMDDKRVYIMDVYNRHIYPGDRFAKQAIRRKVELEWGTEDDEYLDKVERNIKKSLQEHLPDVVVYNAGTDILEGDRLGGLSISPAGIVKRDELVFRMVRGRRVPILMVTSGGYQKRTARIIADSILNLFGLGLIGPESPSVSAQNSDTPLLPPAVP
Method: (§1) Briefly, all of the compounds are dissolved in DMSO. A series of dilutions of the compounds were prepared with 10% DMSO in HDAC assay buffer and 5 μl of the dilution was added to a 50 μl reaction so that the final concentration of DMSO is 1% in all of reactions. The compounds were pre-incubated in duplicate at RT for 1 hour in a mixture containing HDAC assay buffer, 5 μg BSA, HDAC enzyme (see Table 7) and a the particular HDACi. After 1 hour, the enzymatic reactions were initiated by the addition of HDAC substrate (BPS Bioscience) to a final concentration of 10 μM or 2 μM. The enzymatic reaction proceeded for 30 minutes at 37° C.
(§2) HDAC activity assays were performed in duplicates at each concentration. The fluorescent intensity data were analyzed using the computer software, Graphpad Prism. In the absence of the compound, the fluorescent intensity (Ft) in each data set was defined as 100% activity. In the absence of HDAC, the fluorescent intensity (Fb) in each data set was defined as 0% activity. The percent activity in the presence of each compound was calculated according to the following equation: % activity=(F−Fb)/(Ft−Fb), where F=the fluorescent intensity in the presence of the compound. […]

[2] = target: HDAC1 (Homo sapiens, UniProt Q13547); test: in vitro HDAC inhibition assay (fluorescence), HDAC1; format: biochemical
Method: as §1, §2

[3] = target: HDAC9 (Homo sapiens, UniProt Q9UKV0); test: in vitro HDAC inhibition assay (fluorescence), HDAC9; format: biochemical; details: HDAC9
Method: as §1, §2

[4] = target: HDAC2 (Homo sapiens, UniProt Q92769); test: biochemical
Method: as §1
(§3) HDAC activity assays were performed in duplicates at each concentration. The fluorescent intensity data were analyzed using the computer software, Graphpad Prism. In the absence of the compound, the fluorescent intensity (Ft) in each data set was defined as 100% activity. In the absence of HDAC, the fluorescent intensity (Fb) in each data set was defined as 0% activity. The percent activity in the presence of each compound was calculated according to the following equation: % activity=(F−Fb)/(Ft−Fb), where F=the fluorescent intensity in the presence of the compound.
(§4) The values of % activity versus a series of compound concentrations were then plotted using non-linear regression analysis of Sigmoidal dose-response curve generated with the equation Y=B+(T−B)/1+10^((Log C50−X)×Hill Slope), where Y=percent activity, B=minimum percent activity, T=maximum percent activity, X=logarithm of compound and Hill Slope=slope factor or Hill coefficient. The IC50 value was determined by the concentration causing a half-maximal percent activity.

[5] = target: HDAC3/NCOR2 (Homo sapiens, UniProt O15379); test: biochemical
Method: as §1, §3, §4

[6] = target: T2, HDAC6 (Homo sapiens, UniProt Q9UBN7); test: biochemical
T2 sequence (Q9UBN7 1-1215): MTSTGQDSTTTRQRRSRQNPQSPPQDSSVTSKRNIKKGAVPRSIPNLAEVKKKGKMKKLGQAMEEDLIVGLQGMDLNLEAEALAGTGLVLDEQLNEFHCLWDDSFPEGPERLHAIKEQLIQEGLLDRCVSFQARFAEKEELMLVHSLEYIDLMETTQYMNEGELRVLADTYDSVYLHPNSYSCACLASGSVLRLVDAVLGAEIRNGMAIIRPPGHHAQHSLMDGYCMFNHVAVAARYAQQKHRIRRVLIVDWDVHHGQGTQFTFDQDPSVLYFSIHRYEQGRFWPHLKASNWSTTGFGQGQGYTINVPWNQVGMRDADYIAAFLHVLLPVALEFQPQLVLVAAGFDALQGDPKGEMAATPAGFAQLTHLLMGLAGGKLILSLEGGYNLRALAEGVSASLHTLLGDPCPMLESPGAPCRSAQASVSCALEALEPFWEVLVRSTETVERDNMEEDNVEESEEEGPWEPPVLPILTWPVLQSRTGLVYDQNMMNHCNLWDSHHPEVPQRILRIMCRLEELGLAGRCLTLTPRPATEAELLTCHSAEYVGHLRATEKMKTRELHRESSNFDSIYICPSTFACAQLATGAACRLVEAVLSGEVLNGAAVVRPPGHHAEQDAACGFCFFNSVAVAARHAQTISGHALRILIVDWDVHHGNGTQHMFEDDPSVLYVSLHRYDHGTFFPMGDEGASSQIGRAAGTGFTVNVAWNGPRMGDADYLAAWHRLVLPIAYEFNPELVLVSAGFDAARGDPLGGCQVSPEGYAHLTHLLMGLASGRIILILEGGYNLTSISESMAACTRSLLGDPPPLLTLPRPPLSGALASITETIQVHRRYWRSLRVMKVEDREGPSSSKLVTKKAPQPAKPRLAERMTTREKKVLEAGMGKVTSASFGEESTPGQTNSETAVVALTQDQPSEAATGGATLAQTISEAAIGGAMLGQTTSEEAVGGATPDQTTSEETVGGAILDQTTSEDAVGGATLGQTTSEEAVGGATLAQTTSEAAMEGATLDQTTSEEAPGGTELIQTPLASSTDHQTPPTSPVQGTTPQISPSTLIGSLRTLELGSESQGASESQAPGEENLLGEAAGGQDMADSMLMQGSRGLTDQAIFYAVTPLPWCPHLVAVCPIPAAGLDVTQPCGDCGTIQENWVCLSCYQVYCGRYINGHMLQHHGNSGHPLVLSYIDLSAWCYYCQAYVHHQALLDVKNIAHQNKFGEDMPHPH
Method: as §1, §3, §4

[7] = Single dose pharmacokinetics of VRx-3996 in patients, serum, cycle 1 day 1; format: in vivo, humans; details: human, po
Method: Patients enrolled in study were administered oral nanatinostat and valganciclovir at predefined doses. […] 8.1 software.

HDAC2, sequence (Q92769 whole entry): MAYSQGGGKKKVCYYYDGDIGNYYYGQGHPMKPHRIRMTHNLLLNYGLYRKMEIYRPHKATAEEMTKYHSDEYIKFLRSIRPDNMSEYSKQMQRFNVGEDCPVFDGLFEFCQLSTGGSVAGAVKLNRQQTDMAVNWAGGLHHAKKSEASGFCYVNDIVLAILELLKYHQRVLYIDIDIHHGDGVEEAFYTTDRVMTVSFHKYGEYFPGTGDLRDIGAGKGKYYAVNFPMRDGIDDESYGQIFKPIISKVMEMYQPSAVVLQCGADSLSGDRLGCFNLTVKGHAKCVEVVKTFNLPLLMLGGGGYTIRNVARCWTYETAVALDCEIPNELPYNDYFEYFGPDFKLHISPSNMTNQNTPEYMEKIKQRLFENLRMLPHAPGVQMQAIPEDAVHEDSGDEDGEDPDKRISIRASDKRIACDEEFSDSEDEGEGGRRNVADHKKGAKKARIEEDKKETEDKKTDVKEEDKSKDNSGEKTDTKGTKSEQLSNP
HDAC1, sequence (Q13547 whole entry): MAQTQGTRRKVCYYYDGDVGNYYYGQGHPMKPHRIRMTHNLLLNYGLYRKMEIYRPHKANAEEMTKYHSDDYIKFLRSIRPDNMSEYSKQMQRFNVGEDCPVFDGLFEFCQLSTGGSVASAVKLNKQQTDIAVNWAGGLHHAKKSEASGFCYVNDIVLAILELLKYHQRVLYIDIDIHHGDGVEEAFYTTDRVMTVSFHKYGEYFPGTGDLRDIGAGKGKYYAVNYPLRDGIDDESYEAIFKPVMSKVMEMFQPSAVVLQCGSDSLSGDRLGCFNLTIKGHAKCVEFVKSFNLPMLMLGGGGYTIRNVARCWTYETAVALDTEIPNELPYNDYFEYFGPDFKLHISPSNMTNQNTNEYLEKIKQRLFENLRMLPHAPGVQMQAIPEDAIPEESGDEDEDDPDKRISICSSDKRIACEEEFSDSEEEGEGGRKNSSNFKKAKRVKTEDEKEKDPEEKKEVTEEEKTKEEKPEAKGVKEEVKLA
HDAC9, sequence (Q9UKV0 whole entry): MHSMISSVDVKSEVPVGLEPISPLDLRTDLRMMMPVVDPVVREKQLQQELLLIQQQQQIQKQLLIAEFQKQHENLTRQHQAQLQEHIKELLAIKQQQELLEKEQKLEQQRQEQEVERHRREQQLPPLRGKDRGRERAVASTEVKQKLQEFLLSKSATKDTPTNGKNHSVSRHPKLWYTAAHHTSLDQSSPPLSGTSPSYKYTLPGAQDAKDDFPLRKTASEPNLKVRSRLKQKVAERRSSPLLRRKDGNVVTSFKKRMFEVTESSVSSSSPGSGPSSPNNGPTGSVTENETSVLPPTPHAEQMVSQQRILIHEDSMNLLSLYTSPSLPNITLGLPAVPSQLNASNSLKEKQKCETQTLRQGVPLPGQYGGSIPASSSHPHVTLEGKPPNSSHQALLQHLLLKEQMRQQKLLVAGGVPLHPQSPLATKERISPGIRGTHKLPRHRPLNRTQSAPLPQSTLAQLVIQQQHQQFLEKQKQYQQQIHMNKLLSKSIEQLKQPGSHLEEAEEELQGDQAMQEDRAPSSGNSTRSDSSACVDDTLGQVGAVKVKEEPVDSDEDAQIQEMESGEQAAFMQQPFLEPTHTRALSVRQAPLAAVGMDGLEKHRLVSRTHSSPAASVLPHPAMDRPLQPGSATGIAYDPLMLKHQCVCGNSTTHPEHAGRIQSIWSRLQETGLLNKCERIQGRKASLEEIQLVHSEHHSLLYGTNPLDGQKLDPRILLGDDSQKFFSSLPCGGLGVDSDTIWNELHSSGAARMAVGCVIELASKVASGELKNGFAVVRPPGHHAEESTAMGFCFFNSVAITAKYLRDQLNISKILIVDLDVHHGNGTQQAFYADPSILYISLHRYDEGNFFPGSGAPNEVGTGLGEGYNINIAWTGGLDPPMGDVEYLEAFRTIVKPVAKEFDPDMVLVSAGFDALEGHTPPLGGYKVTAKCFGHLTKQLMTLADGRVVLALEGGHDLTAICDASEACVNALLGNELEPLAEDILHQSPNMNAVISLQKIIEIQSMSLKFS
HDAC3/NCOR2, sequence (O15379 whole entry): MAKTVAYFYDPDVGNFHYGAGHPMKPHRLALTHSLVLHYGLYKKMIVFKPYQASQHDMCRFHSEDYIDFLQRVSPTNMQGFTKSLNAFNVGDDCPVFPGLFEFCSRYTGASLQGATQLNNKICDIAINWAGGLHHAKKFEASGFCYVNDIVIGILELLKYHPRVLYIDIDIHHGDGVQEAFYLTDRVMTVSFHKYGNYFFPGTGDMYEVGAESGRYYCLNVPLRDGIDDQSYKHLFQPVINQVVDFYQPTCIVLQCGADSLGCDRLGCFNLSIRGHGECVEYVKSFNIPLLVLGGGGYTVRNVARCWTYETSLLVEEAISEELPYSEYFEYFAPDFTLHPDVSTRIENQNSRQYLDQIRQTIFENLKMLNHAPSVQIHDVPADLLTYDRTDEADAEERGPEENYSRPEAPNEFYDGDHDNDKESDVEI
HDAC3/NCOR2, sequence (Q9Y618 395-489 partner limits assumed): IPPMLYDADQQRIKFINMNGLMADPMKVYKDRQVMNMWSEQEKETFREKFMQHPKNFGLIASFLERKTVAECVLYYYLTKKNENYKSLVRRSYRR

SMILES: O=C(NO)c1cnc(N2CC3C(C2)C3NCc2ccc3cc(F)ccc3n2)nc1 (stereo not shown) [Nstat, 2-(6-{[(6-Fluoroquinolin-2-yl)methyl]amino}-3-azabicyclo[3.1.0]hex-3-yl)-N-hydroxypyrimidine-5-carboxamide]
- IC50 [1]: 2800 nM
- IC50 [2]: 3.6 nM
- IC50 [3]: 440 nM
- IC50 [4]: 12 nM
- IC50 [5]: 12 nM
- IC50 [6]: 450 nM
- AUC ([7]; Treatment A = 5 mg VRx-3996 p.o. and 450 mg Valganciclovir p.o., single dose, N=1, read-out: AUC, geometric mean): 117 ng·h/mL
- half-life ([7]; Treatment A = 5 mg VRx-3996 p.o. and 450 mg Valganciclovir p.o., single dose, N=1, read-out: Half-Life, geometric mean (converted)): 2.18 h
- AUC(0-t) ([7]; Treatment A = 5 mg VRx-3996 p.o. and 450 mg Valganciclovir p.o., single dose, N=4, read-out: AUClast, geometric mean): 40.5 ng·h/mL
- Cmax ([7]; Treatment A = 5 mg VRx-3996 p.o. and 450 mg Valganciclovir p.o., single dose, N=4, read-out: Cmax, geometric mean): 18.5 ng/mL
- Tmax ([7]; Treatment A = 5 mg VRx-3996 p.o. and 450 mg Valganciclovir p.o., single dose, N=4, read-out: Tmax, median (range)): 3 h
- AUC ([7]; Treatment B = 10 mg VRx-3996 p.o. and 450 mg Valganciclovir p.o., single dose, N=1, read-out: AUC, geometric mean): 317 ng·h/mL
- half-life ([7]; Treatment B = 10 mg VRx-3996 p.o. and 450 mg Valganciclovir p.o., single dose, N=1, read-out: Half-Life, geometric mean (converted)): 1.17 h
- AUC(0-t) ([7]; Treatment B = 10 mg VRx-3996 p.o. and 450 mg Valganciclovir p.o., single dose, N=9, read-out: AUClast, geometric mean): 165 ng·h/mL
- Cmax ([7]; Treatment B = 10 mg VRx-3996 p.o. and 450 mg Valganciclovir p.o., single dose, N=9, read-out: Cmax, geometric mean): 62.6 ng/mL
- Tmax ([7]; Treatment B = 10 mg VRx-3996 p.o. and 450 mg Valganciclovir p.o., single dose, N=9, read-out: Tmax, median (range)): 2 h
- AUC ([7]; Treatment C = 10 mg VRx-3996 p.o. and 900 mg Valganciclovir p.o., single dose, N=4, read-out: AUC, geometric mean): 322 ng·h/mL
- half-life ([7]; Treatment C = 10 mg VRx-3996 p.o. and 900 mg Valganciclovir p.o., single dose, N=4, read-out: Half-Life, geometric mean (converted)): 1.67 h
- AUC(0-t) ([7]; Treatment C = 10 mg VRx-3996 p.o. and 900 mg Valganciclovir p.o., single dose, N=6, read-out: AUClast, geometric mean): 227 ng·h/mL
- Cmax ([7]; Treatment C = 10 mg VRx-3996 p.o. and 900 mg Valganciclovir p.o., single dose, N=6, read-out: Cmax, geometric mean): 78.9 ng/mL
- Tmax ([7]; Treatment C = 10 mg VRx-3996 p.o. and 900 mg Valganciclovir p.o., single dose, N=6, read-out: Tmax, median (range)): 1 h
- half-life ([7]; humans, oral nanatinostat with valganciclovir, read-out: T1/2 (converted)): ~2 h
